According to patent publication EP4567037A1, “USE OF PYRROLOPYRIMIDINE COMPOUND IN TREATMENT OF ACUTE GRAFT VERSUS HOST DISEASE” (Chia Tai Tianqing Pharmaceutical Group Co., Ltd., priority 2022, dated 2024):

Test system: glucocorticoid-resistant acute graft-versus-host disease
Test: Clinical study of tablets of the compound of formula II in subjects with glucocorticoid-resistant acute graft-versus-host disease
Assay type: in vivo
Method: This study was conducted to evaluate the safety and preliminary efficacy of the compound of formula II for treating acute graft-versus-host disease in a subject resistant to glucocorticoid.
Administration method: orally administered twice a day at fasting, at a dose of 10 mg or 15 mg each time, with 28 consecutive days of administration as one treatment cycle.
Drug: the compound of formula I in 5 mg or 20 mg tablets, with the compound of formula I being shown as its stereoisomer, a compound of formula II: [drawing 4]
• 1) Aged 12-75 years (inclusive), with no gender restriction; • 2) Previously received allogeneic hematopoietic stem cell transplantation (including non-myeloablative, myeloablative, and reduced-intensity conditioning transplantation of bone marrow, peripheral blood stem cells, and umbilical cord blood); • 3) Clinically diagnosed with aGVHD of grade II to grade IV according to MAGIC guidelines; • Resistance to glucocorticoid therapy *, defined as resistance to high-dose systemic glucocorticoid (methylprednisolone at a dose of 1-2 mg/kg/day or prednisone at an equivalent dose of 1.25-2.5 mg/kg/day), taken alone or taken in combination with a calcineurin inhibitor (CNI); • * Subjects meeting any one of the following conditions can be defined as resistant to conventional glucocorticoid therapy, i.e., therapy with methylprednisolone at a dose of ≥ 1 mg/kg/day or therapy with another type of glucocorticoid at an equivalent dose: (1) progression of aGVHD after the glucocorticoid therapy has been administered for 3 days, (2) no amelioration in aGVHD after the glucocorticoid therapy has been administered for 5 days, and (3) incomplete response of aGVHD after the glucocorticoid therapy has been administered for 14 days; • 4) Within 48 h before the start of therapy, neutrophil count (ANC) > 1 × 10^9/L, and platelet count (PLT) ≥ 20×10^9/L; and • 5) Subjects with voluntary participation, signed informed consent, and good compliance.
During the study, the investigator scored aGVHD treatment responses according to Harris 2016 response evaluation criteria.
The evaluation index may be selected from the group consisting of: • Objective response rate (ORR): refers to the percentage of subjects in complete response (CR) or very good partial response (VGPR) or partial response (PR). • Complete response (CR) rate: refers to the percentage of subjects in complete response (CR). • Overall survival (OS): refers to the time from the start of the first administration to death due to any cause. • Duration of response (DOR): for subjects in complete response (CR) or very good partial response (VGPR) or partial response (PR) on day 28, DOR is defined as the time from the date of the first recorded response to the date of the first recorded disease progression or the start of any new systemic therapy for aGVHD. • Event-free survival (EFS): defined as the time from the date of the first administration to the date of relapse/progression of hematologic disease, transplantation failure, or death due to any cause. • Non-relapse mortality (NRM): defined as the time from the date of the first administration to the date of death not related to relapse/progression of hematologic disease. • Incidence of malignancy relapse/progression (MR): defined as the time from the date of the first administration to the date of relapse/progression of hematologic disease.
Twelve evaluable subjects orally took tablets of the compound of formula II twice a day at fasting, at a dose of 10 mg each time, with 28 days as one administration cycle. The ORR of the 12 subjects on D28 was 83.3% (10/12), with 8 achieving CR and 2 achieving VGPR (very good partial response). […] Evaluation of efficacy in patients

[1] = D28, of 12 evaluable subjects, 10 mg twice a day

N#CC[C@H](C1CCCC1)n1cc(-c2ncnc3[nH]ccc23)c(N)n1 [compound of formula II]
Tolerability and safety (10 mg twice a day, oral tablets, overall adverse events being controllable): good tolerability and safety
ORR on D28 (12 evaluable subjects, oral, twice a day at fasting, 10 mg each time, 28-day cycle, Harris 2016 response criteria): 83.3%
ORR on D28 (responders/evaluable subjects) (12 evaluable subjects, oral, twice a day, 10 mg each time, 28-day cycle): 10/12
Number of subjects achieving CR [1]: 8
Number of subjects achieving VGPR (very good partial response) [1]: 2
Number of patients achieving ORR on D28 (subgroup aGVHD Grade II (6 patients)): 6
Number of patients achieving ORR on D28 (subgroup aGVHD Grade III (6 patients)): 4
Number of patients achieving ORR on D28 (subgroup organ affected by aGVHD: Liver (5 patients)): 3
Number of patients achieving ORR on D28 (subgroup organ affected by aGVHD: Lower digestive tract (5 patients)): 4
Number of patients achieving ORR on D28 (subgroup organ affected by aGVHD: Skin (8 patients)): 8
Number of patients achieving ORR on D28 (subgroup organ affected by aGVHD: Upper digestive tract (2 patients)): 2
Number of patients achieving ORR on D28 (subgroup previous therapy Hormone + CD25 monoclonal antibody (1 patient)): 0
Number of patients achieving ORR on D28 (subgroup previous therapy Hormone + CNI + MMF (6 patients)): 5
Number of patients achieving ORR on D28 (subgroup previous therapy Hormone + MTX + CNI + MMF (1 patient)): 1
Number of patients achieving ORR on D28 (subgroup previous therapy Hormone ± CNI (4 patients)): 4
